Measurements from US20230056335A1, “TOPICAL FORMULATION CONTAINING RAPAMYCIN” (NOBELPHARMA CO., LTD., priority 2020, published 2023).

Experiments:
[1] = Effects of mixing amount of BHT on stability of sirolimus, HPLC quantification; type: physicochemical; details: BHT mixed at a concentration of 1% or higher; 40° C. and 50° C. for 2 weeks
Protocol: Quantification of sirolimus was performed by conducting an HPLC test under the following conditions and comparing the area of a sirolimus peak in a test substance and the area of a sirolimus peak in a sirolimus standard.
Detector: ultraviolet absorption photometer (detection wavelength: 278 nm)
Column: stainless steel tube with internal diameter of 4.6 mm and length of 250 mm filled with octadecylsilyl-silica gel for chromatography
Column temperature: constant temperature of about 40° C.
Mobile phase: acetonitrile/0.02 mol/L ammonium acetate buffer (pH 6.0)=13/7
Solutions were prepared by mixing various concentrations of BHT into the ethanol solution of sirolimus, and the solutions were stored at 40° C. and 50° C. for 2 weeks. Quantification of sirolimus was performed on samples after the storage by the same method as that in Reference Example 2 to calculate residual ratios.

[2] = Solubility of sirolimus in each single solvent (visual observation); type: physicochemical; details: sirolimus:solvent 1:50 (weight ratio)
Protocol: Sirolimus was mixed into each solvent shown in Table 1 so that sirolimus:solvent was a ratio of 1:50 (weight ratio), heating and ultrasonic irradiation were performed thereon in a water bath of about 50° C., and solubility was confirmed by visual observation.

EFT-400 kit skin model = assay: Penetration test for ointment into skin model; type: in vitro ADME
Protocol: Penetration of an ointment into a skin model was tested using the sirolimus ointment prepared in Example 4 as a test substance and an EFT-400 kit manufactured by MetTec Corporation as the skin model.
Skin model cells were transferred to a 6-well plate into which an EFT-400 assay medium was dispensed, and the cells were incubated overnight (for 16 to 18 hours) in a carbon dioxide incubator (37° C., 5% CO2, under a humidified condition).
About 50 mg of the test substance was applied onto the center of the cultured skin cells and evenly spread on the cells. These cells were incubated for 24 hours in a carbon dioxide incubator (37° C., 5% CO2, under a humidified condition). […]
Then, the sample solution was diluted 10-fold with the blank matrix, and 20 μL of the diluted sample solution was collected in a PP tube. 20 μL of acetonitrile, 20 μL of the internal standard solution, and 50 μL methanol were added to and mixed with the diluted sample solution, and the mixture was subjected to LC/MS/MS under the following conditions to quantify a sirolimus concentration in the measurement sample. The mass of sirolimus that transferred to the dermic layer was calculated from the obtained value of the sirolimus concentration and the mass of the dermic layer used in the preparation of the sample solution. […]

Stability of sirolimus [1]: stability of sirolimus was maintained
Solubility in a single solvent ([2]; each solvent of Table 1): did not dissolve
Solubility ([2]; solvent 1,3 Butylene glycol, about 50° C.): Insoluble (cloudy liquid)
Solubility ([2]; solvent Diethyl sebacate, about 50° C.): Insoluble (cloudy liquid)
Solubility ([2]; solvent Diisopropyl sebacate, about 50° C.): Insoluble (cloudy liquid)
Solubility ([2]; solvent Ethylene glycol salicylate, about 50° C.): Insoluble (cloudy liquid)
Solubility ([2]; solvent Medium-chain fatty acid triglyceride, heating and ultrasonic irradiation about 50° C.): Insoluble (cloudy liquid)
Solubility ([2]; solvent Polyethylene glycol (Macrogol 400), about 50° C.): Insoluble (cloudy liquid)
Solubility ([2]; solvent Propylene glycol, about 50° C.): Insoluble (cloudy liquid)
Solubility ([2]; solvent Squalane, about 50° C.): Insoluble (cloudy liquid)
Solubility ([2]; solvent Triacetin, about 50° C.): Insoluble (cloudy liquid)
Skin penetrating properties (EFT-400 kit skin model; sirolimus ointment prepared in Example 4, EFT-400 skin model): sufficiently maintained
Structure (SMILES): CO[C@H]1C[C@@H]2CC[C@@H](C)[C@@](O)(O2)C(=O)C(=O)N2CCCC[C@H]2C(=O)O[C@H]([C@H](C)C[C@@H]2CC[C@@H](O)[C@H](OC)C2)CC(=O)[C@H](C)/C=C(\C)[C@@H](O)[C@@H](OC)C(=O)[C@H](C)C[C@H](C)/C=C/C=C/C=C/1C [sirolimus]
Rate of sirolimus transferred to the dermic layer (EFT-400 kit skin model; sirolimus ointment prepared in Example 4, about 50 mg applied, 24 hours incubation, LC/MS/MS): 1.402 % with respect to the indicated dose
